Assay results as given in PMC8294059, “Identification and Immune Assessment of T Cell Epitopes in Five Plasmodium falciparum Blood Stage Antigens to Facilitate Vaccine Candidate Selection and Optimization” (Frontiers in Immunology, 2021).
Where a SMILES comes first, the peptide text is derived from it.

Tests used:
HLA-B*0702 = HLA-B*0702 (Homo sapiens, UniProt P01889); test: In vitro class I HLA binding assay (fluorescence polarization competition); conditions: allele B*0702; for IC50 (nM), in vitro HLA binding affinity / IC50: fluorescence polarization competition; for IC50: read-out: IC50 (nM), in vitro HLA binding affinity
Protocol: A cell-free class I HLA binding assay that allows for in vitro quantification of peptide-HLA binding affinity in a competition format was used. In this assay, a fluorescently labeled, high binding, control peptide is loaded onto 384-well ½-area plates along with unlabeled experimental peptides. To remove endogenous peptides and render the HLA A and B molecules receptive to binding, HLA is heated at 53°C for 15 minutes and immediately added to the assay. The mixture is then allowed to stand for three days. […] Binding of experimental peptides is expressed as the percent inhibition of the labeled control peptide (experimental fluorescence / control fluorescence, multiplied by 100). The percent inhibition values for each experimental peptide (across a range of molar concentrations) are used to calculate the concentration which inhibits 50% of the labeled control peptide’s specific binding. This value is referred to as the peptide’s IC50.

HLA-DRB1*1101 = HLA-DRB1*1101 (Homo sapiens, UniProt P01903+P01911, A100R/A169T/A87E/I96F/K41T/L162R/M171V/P40S/Q125H/Q178H/Q39Y/Q99D/R42S/S66Y/T262R/V115G/W38E); test: biochemical; type: binding; conditions: binding inhibition assay; NB = non-binder (no dose-dependent inhibition); read-out: DRB1*1101 IC50
In short: (§1)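 Peptides were titrated (final 100,000 nM down to 100 nM) in competition with a labeled reference binder for commercial HLA-DRB1 monomers.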

HLA-DRB1*0401 = target: T1, HLA-DRB1*0401 (Homo sapiens, UniProt P01903+P01911, A100K/A169T/F76Y/I96L/K127E/L162R/M171V/N62H/P40V/Q125Y/R42H/S133A/S149N/S66Y/V115G/V209L/W38E); test: biochemical; type: binding; conditions: binding inhibition assay; NB = non-binder (no dose-dependent inhibition); read-out: DRB1*0401 IC50
T1 construct: purchased
In short: as §1

HLA-DRB1*0101 = target: T2, HLA-DRB1*0101 (Homo sapiens, UniProt P01903+P01911, A100R/D57E/F55L/F60I/F76Y/I96L/L162R/M171V/P40L/Q125E/R42F/V115G/Y59C); test: biochemical; type: binding; conditions: binding inhibition assay; NB = non-binder (no dose-dependent inhibition); read-out: DRB1*0101 IC50
T2 construct: purchased
In short: as §1

HLA-DRB1*0801 = HLA-DRB1*0801 (Homo sapiens, UniProt P01903+P01911, A100R/A103L/A169T/D86S/F76Y/H45Y/I96F/K41T/L162R/M171V/P40S/Q125H/Q178H/Q39Y/Q99D/R218S/R42G/S66Y/V115G/W38E); test: biochemical; type: binding; conditions: binding inhibition assay; NB = non-binder (no dose-dependent inhibition); read-out: DRB1*0801 IC50
In short: as §1

HLA-DRB1*0701 = HLA-DRB1*0701 (Homo sapiens, UniProt P01903+P01911, A100R/A102G/A103Q/D57E/D86V/E43K/F76Y/K127E/L162R/M171V/P40G/Q125H/Q99D/R33Q/R42Y/R54Q/S133A/S66F/T210M/V115G/Y107V/Y59L/Y89S); test: biochemical; type: binding; conditions: binding inhibition assay; NB = non-binder (no dose-dependent inhibition); read-out: DRB1*0701 IC50
In short: as §1

HLA-DRB1*1501 = target: T3, HLA-DRB1*1501 (Homo sapiens, UniProt P01903+P01911); test: biochemical; type: binding; conditions: binding inhibition assay; NB = non-binder (no dose-dependent inhibition); read-out: DRB1*1501 IC50
T3 construct: purchased
In short: as §1

HLA-DRB1*1301 = HLA-DRB1*1301 (Homo sapiens, UniProt P01903+P01911, A100E/A169T/K41T/L162R/M171V/P40S/Q125H/Q178H/Q39Y/Q99D/R42S/S66N/T262R/W38E/Y61H); test: biochemical; type: binding; conditions: binding inhibition assay; NB = non-binder (no dose-dependent inhibition); read-out: DRB1*1301 IC50
In short: as §1

Compound | IC50 (nM) (HLA-B*0702; cell-free competition, fluorescence polarization at 72 hours, Non-binder = no dose-dependent inhibition) | IC50 (nM), in vitro HLA binding affinity (HLA-B*0702) | IC50 (HLA-B*0702) | IC50 (HLA-DRB1*1101) | IC50 (HLA-DRB1*0401) | IC50 (HLA-DRB1*0101) | IC50 (HLA-DRB1*0801) | IC50 (HLA-DRB1*0701) | IC50 (HLA-DRB1*1501) | IC50 (HLA-DRB1*1301)
TPGPLDNTSE [EBA175_1073] | Non-binder |  |  |  |  |  |  |  |  | 
FNRIEYHTKI [RH5_421] |  | Non-binder |  |  |  |  |  |  |  | 
CC[C@H](C)[C@H](NC(=O)[C@@H]1CCCN1C(=O)[C@@H](N)Cc1c[nH]cn1)C(=O)N[C@@H](CCC(=O)O)C(=O)N[C@H](C(=O)N[C@@H](CCC(=O)O)C(=O)N[C@@H](CC(N)=O)C(=O)N[C@@H](CC(N)=O)C(=O)N[C@@H](Cc1ccccc1)C(=O)O)C(C)C [AMA1_433] (H-HPIEVENNF-OH) |  |  | 310000 nM |  |  |  |  |  |  | 
CC[C@H](C)[C@H](N)C(=O)N1CCC[C@H]1C(=O)N[C@@H](Cc1ccccc1)C(=O)N[C@@H](Cc1c[nH]cn1)C(=O)N[C@@H](CCCCN)C(=O)N[C@@H](CCCCN)C(=O)N[C@@H](Cc1ccccc1)C(=O)N[C@H](C(=O)N[C@@H](CO)C(=O)N[C@@H](Cc1ccccc1)C(=O)O)[C@@H](C)CC [CYRPA_003] (H-IPFHKKFISF-OH) |  |  | 21900 nM |  |  |  |  |  |  | 
FPCSLYKDEI [AMA1_441] |  | Non-binder |  |  |  |  |  |  |  | 
CC[C@H](C)[C@H](N)C(=O)N[C@H](C(=O)N[C@@H](CO)C(=O)N[C@@H](CC(=O)O)C(=O)N[C@@H](Cc1c[nH]cn1)C(=O)N[C@@H](CC(C)C)C(=O)N[C@@H](CCCNC(=N)N)C(=O)N[C@@H](CCC(N)=O)C(=O)N[C@@H](CCSC)C(=O)O)[C@@H](C)O [RH5_470] (H-ITSDHLRQM-OH) |  |  | 183000 nM |  |  |  |  |  |  | 
HPYDINNKND [RH5_240] |  | Non-binder |  |  |  |  |  |  |  | 
CC[C@H](C)[C@H](NC(=O)[C@H](CS)NC(=O)[C@H](CCC(=O)O)NC(=O)CNC(=O)[C@H](CCCNC(=N)N)NC(=O)[C@H](CO)NC(=O)[C@H](CO)NC(=O)[C@H](CCCNC(=N)N)NC(=O)[C@H](Cc1ccc(O)cc1)NC(=O)[C@H](Cc1ccc(O)cc1)NC(=O)[C@H](Cc1c[nH]cn1)NC(=O)[C@H](CCC(=O)O)NC(=O)[C@H](CCCCN)NC(C)=O)C(=O)N[C@@H](CC(C)C)C(=O)N[C@@H](CC(N)=O)C(=O)N[C@@H](CC(=O)O)C(N)=O [RIPR_017] (Ac-KEHYYRSSRGECILND-NH2) |  |  |  | 1.38 µM | > 100 µM | 0.025 µM | 6.44 µM | 0.489 µM | 58.2 µM | > 100 µM
CC[C@H](C)[C@H](NC(=O)[C@H](CS)NC(=O)[C@H](CCCCN)NC(=O)CNC(=O)[C@H](Cc1ccc(O)cc1)NC(=O)[C@@H](NC(=O)[C@H](CO)NC(=O)[C@H](CO)NC(=O)[C@H](CCCCN)NC(=O)[C@H](Cc1c[nH]cn1)NC(=O)[C@H](Cc1ccc(O)cc1)NC(=O)[C@@H](NC(=O)[C@H](CO)NC(=O)[C@H](CC(N)=O)NC(=O)[C@H](Cc1ccc(O)cc1)NC(=O)[C@H](CO)NC(=O)[C@H](CC(C)C)NC(=O)[C@H](Cc1c[nH]cn1)NC(C)=O)[C@@H](C)CC)[C@@H](C)O)C(=O)N[C@@H](C)C(N)=O [RH5_006B] (Ac-HLSYNSIYHKSSTYGKCIA-NH2) |  |  |  | 0.834 µM | 2.91 µM | 1.35 µM | 18.9 µM | 19.8 µM | 7.8 µM | 29.3 µM
CC[C@H](C)[C@H](NC(=O)[C@H](CCC(=O)O)NC(=O)[C@@H](NC(=O)[C@H](CCCCN)NC(=O)[C@H](CCCCN)NC(C)=O)C(C)C)C(=O)N[C@@H](Cc1ccccc1)C(=O)N[C@@H](CCCNC(=N)N)C(=O)N[C@@H](CO)C(=O)N[C@@H](CCCNC(=N)N)C(=O)N[C@@H](Cc1ccccc1)C(=O)N[C@@H](CO)C(=O)N[C@@H](CO)C(=O)N[C@@H](CCCCN)C(=O)N[C@@H](CC(C)C)C(=O)N[C@@H](CCC(N)=O)C(=O)N[C@@H](CS)C(=O)N[C@@H](CCC(N)=O)C(N)=O [RIPR_011] (Ac-KKVEIFRSRFSSKLQCQ-NH2) |  |  |  | 9.22 µM | 22 µM | 1.36 µM | 65.6 µM | 13.7 µM | 0.007 µM | 9.43 µM
CC(=O)N[C@H](C(=O)N[C@@H](CO)C(=O)N[C@@H](CS)C(=O)N[C@@H](Cc1ccc(O)cc1)C(=O)N[C@@H](CCCNC(=N)N)C(=O)N[C@H](C(=O)N[C@@H](CO)C(=O)N[C@@H](Cc1ccccc1)C(=O)N[C@@H](CC(N)=O)C(=O)N[C@@H](CC(C)C)C(=O)N[C@@H](CC(N)=O)C(=O)N[C@@H](CCCCN)C(=O)N[C@@H](CC(C)C)C(=O)N[C@@H](CCCCN)C(=O)N[C@@H](Cc1ccc(O)cc1)C(=O)N[C@H](C(=O)N[C@H](C(=O)N[C@@H](CCC(=O)O)C(=O)N[C@@H](CO)C(N)=O)[C@@H](C)O)C(C)C)C(C)C)C(C)C [RIPR_006] (Ac-VSCYRVSFNLNKLKYVTES-NH2) |  |  |  | 9.32 µM | 8.78 µM | 0.446 µM | 11.3 µM | 0.952 µM | 6.96 µM | 11.5 µM
CC(=O)N[C@@H](Cc1ccccc1)C(=O)N[C@@H](CCC(N)=O)C(=O)N[C@@H](CC(N)=O)C(=O)N[C@@H](Cc1ccc(O)cc1)C(=O)N[C@H](C(=O)N[C@@H](Cc1ccc(O)cc1)C(=O)N[C@@H](CC(C)C)C(=O)N[C@@H](CO)C(=O)N[C@@H](CCCCN)C(=O)N[C@@H](CC(N)=O)C(=O)N[C@H](C(=O)N[C@H](C(=O)N[C@@H](CC(=O)O)C(=O)N[C@@H](CC(N)=O)C(=O)N[C@@H](Cc1c[nH]c2ccccc12)C(=O)N[C@@H](CCC(=O)O)C(N)=O)C(C)C)C(C)C)[C@@H](C)O [AMA1_004] (Ac-FQNYTYLSKNVVDNWE-NH2) |  |  |  | 0.567 µM | 9.69 µM | 0.016 µM | 0.01 µM | 9.48 µM | 0.248 µM | 70 µM
